From patent US20120016009A1, “Optimized Methods For Delivery Of DSRNA Targeting The PCSK9 Gene” (priority 2008, published 2012)
In the oligonucleotide strings, read from the 5' end, every base follows the letter of its sugar. An asterisk marks phosphorothioate; unmarked linkages are phosphodiester. Other units and linkages are bracketed, terminal groups are in braces. A string of capitals states the bases alone. d = 2'-deoxy (DNA); r = 2'-OH (RNA)

Tested on: PCSK9 mRNA
Experiment: PCSK9 siRNA screening in HepG2 cells (lipofectamine 2000 transfection, PCSK9 mRNA by Quantigene, normalized to GAP-DH)
Format: cell-based, human
Details: for Mean percent remaining mRNA transcript at siRNA concentration/in cell type 30 nM/HepG2: 30 nM siRNA; for Mean percent remaining mRNA transcript at siRNA concentration/in cell type 100 nM/HepG2: 100 nM siRNA; for Mean percent remaining mRNA transcript at siRNA concentration/in cell type 3 nM/HepG2: 3 nM siRNA
Procedure: HuH-7 cells were obtained from JCRB Cell Bank (Japanese Collection of Research Bioresources) (Shinjuku, Japan, cat. No.: JCRB0403) Cells were cultured in Dulbecco's MEM (Biochrom AG, Berlin, Germany, cat. No. F0435) supplemented to contain 10% fetal calf serum (FCS) (Biochrom AG, Berlin, Germany, cat. No. S0115), Penicillin 100 U/ml, Streptomycin 100 μg/ml (Biochrom AG, Berlin, Germany, cat. No. A2213) and 2 mM L-Glutamin (Biochrom AG, Berlin, Germany, cat. No K0282) at 37° C. in an atmosphere with 5% CO2 in a humidified incubator (Heraeus HERAcell, Kendro Laboratory Products, Langenselbold, Germany) HepG2 and HeLa cells were obtained from American Type Culture Collection (Rockville, Md., cat. No. HB-8065) and cultured in MEM (Gibco Invitrogen, Karlsruhe, Germany, cat. No. 21090-022) supplemented to contain 10% fetal calf serum (FCS) (Biochrom AG, Berlin, Germany, cat. No. S0115), Penicillin 100 U/ml, Streptomycin 100 μg/ml (Biochrom AG, Berlin, Germany, cat. No. A2213), 1× Non Essential Amino Acids (Biochrom AG, Berlin, Germany, cat. No. K-0293), and 1 mM Sodium Pyruvate (Biochrom AG, Berlin, Germany, cat. No. L-0473) at 37° C. in an atmosphere with 5% CO2 in a humidified incubator (Heraeus HERAcell, Kendro Laboratory Products, Langenselbold, Germany).
For transfection with siRNA, HuH7, HepG2, or HeLa cells were seeded at a density of 2.0×10^4 cells/well in 96-well plates and transfected directly. Transfection of siRNA (30 nM for single dose screen) was carried out with lipofectamine 2000 (Invitrogen GmbH, Karlsruhe, Germany, cat. No. 11668-019) as described by the manufacturer.
24 hours after transfection HuH7 and HepG2 cells were lysed and PCSK9 mRNA levels were quantified with the Quantigene Explore Kit (Genosprectra, Dumbarton Circle Fremont, USA, cat. No. QG-000-02) according to the protocol. PCSK9 mRNA levels were normalized to GAP-DH mRNA. For each siRNA eight individual datapoints were collected. siRNA duplexes unrelated to PCSK9 gene were used as control. The activity of a given PCSK9 specific siRNA duplex was expressed as percent PCSK9 mRNA concentration in treated cells relative to PCSK9 mRNA concentration in cells treated with the control siRNA duplex.
Tables 1b and 2b (and FIG. 6A) summarize the results and provide examples of in vitro screens in different cell lines at different doses. Silencing of PCSK9 transcript was expressed as percentage of remaining transcript at a given dose.
Very active sequences are those that have less than 60% of transcript remaining after treatment with a dose less than or equal to 100 nM. Active sequences are those that have less than 90% transcript remaining after treatment with a high dose (100 nM).

In the case of “AD-9557: PCSK9 siRNA (sense rCrCrArCrCrGrGrGrArArArUrCrGrArGrGrGrCdT*dT; antisense rGrCrCrCrUrCrGrArUrUrUrCrCrCrGrGrUrGrGdT*dT)”, the “Mean percent remaining mRNA transcript at siRNA concentration/in cell type 30 nM/HepG2” value is reported as 96% and the “Mean percent remaining mRNA transcript at siRNA concentration/in cell type 100 nM/HepG2” value is reported as 75%.

For “AD-9558: PCSK9 siRNA (sense rUrArUrCrUrUrUrUrGrGrGrUrCrUrGrUrCrCrUdT*dT; antisense rArGrGrArCrArGrArCrCrCrArArArArGrArUrAdT*dT)”, the “Mean percent remaining mRNA transcript at siRNA concentration/in cell type 30 nM/HepG2” value was 66%.

“AD-9559: PCSK9 siRNA (sense rGrUrGrArCrCrArCrCrGrGrGrArArArUrCrGrAdT*dT; antisense rUrCrGrArUrUrUrCrCrCrGrGrUrGrGrUrCrArCdT*dT)” was tested, and the “Mean percent remaining mRNA transcript at siRNA concentration/in cell type 30 nM/HepG2” value was 35%.

For “AD-9560: PCSK9 siRNA (sense rGrArGrUrUrUrArUrUrCrGrGrArArArArGrCrCdT*dT; antisense rGrGrCrUrUrUrUrCrCrGrArArUrArArArCrUrCdT*dT)”, the “Mean percent remaining mRNA transcript at siRNA concentration/in cell type 30 nM/HepG2” value was 97%.

With “AD-9561: PCSK9 siRNA (sense rGrArCrArCrCrArGrCrArUrArCrArGrArGrUrGdT*dT; antisense rCrArCrUrCrUrGrUrArUrGrCrUrGrGrUrGrUrCdT*dT)” the “Mean percent remaining mRNA transcript at siRNA concentration/in cell type 30 nM/HepG2” value was 64%.

With “AD-9562: PCSK9 siRNA (sense rUrCrUrCrCrUrArGrArCrArCrCrArGrCrArUrAdT*dT; antisense rUrArUrGrCrUrGrGrUrGrUrCrUrArGrGrArGrAdT*dT)” the “Mean percent remaining mRNA transcript at siRNA concentration/in cell type 3 nM/HepG2” value was 51% and the “Mean percent remaining mRNA transcript at siRNA concentration/in cell type 30 nM/HepG2” value was 46%.

For “AD-9563: PCSK9 siRNA (sense rCrGrCrUrGrCrCrGrGrCrArArCrUrUrCrCrGrGdT*dT; antisense rCrCrGrGrArArGrUrUrGrCrCrGrGrCrArGrCrGdT*dT)”, the “Mean percent remaining mRNA transcript at siRNA concentration/in cell type 30 nM/HepG2” value was 103%.

For “AD-9564: PCSK9 siRNA (sense rUrCrArUrUrGrGrUrGrCrCrUrCrCrArGrCrGrAdT*dT; antisense rUrCrGrCrUrGrGrArGrGrCrArCrCrArArUrGrAdT*dT)”, the “Mean percent remaining mRNA transcript at siRNA concentration/in cell type 30 nM/HepG2” value was 120%.

For “AD-9565: PCSK9 siRNA (sense rUrArCrUrCrUrGrCrUrCrUrArUrGrCrCrArGrGdT*dT; antisense rCrCrUrGrGrCrArUrArGrArGrCrArGrArGrUrAdT*dT)”, the “Mean percent remaining mRNA transcript at siRNA concentration/in cell type 30 nM/HepG2” value was 74%.

“AD-9566: PCSK9 siRNA (sense rUrGrCrCrGrGrGrCrCrCrArCrArArCrGrCrUrUdT*dT; antisense rArArGrCrGrUrUrGrUrGrGrGrCrCrCrGrGrCrAdT*dT)” was tested, and the “Mean percent remaining mRNA transcript at siRNA concentration/in cell type 30 nM/HepG2” value was 38%.

With “AD-9567: PCSK9 siRNA (sense rCrGrCrUrGrUrGrUrGrGrArCrCrUrCrUrUrUrGdT*dT; antisense rCrArArArGrArGrGrUrCrCrArCrArCrArGrCrGdT*dT)” the “Mean percent remaining mRNA transcript at siRNA concentration/in cell type 30 nM/HepG2” value was 41%.

“AD-9569: PCSK9 siRNA (sense rArGrCrUrCrCrUrGrCrArCrArGrUrCrCrUrCrCdT*dT; antisense rGrGrArGrGrArCrUrGrUrGrCrArGrGrArGrCrUdT*dT)” was tested, and the “Mean percent remaining mRNA transcript at siRNA concentration/in cell type 30 nM/HepG2” value was 112%.

In the case of “AD-9570: PCSK9 siRNA (sense rCrUrGrCrCrGrGrGrCrCrCrArCrArArCrGrCrUdT*dT; antisense rArGrCrGrUrUrGrUrGrGrGrCrCrCrGrGrCrArGdT*dT)”, the “Mean percent remaining mRNA transcript at siRNA concentration/in cell type 30 nM/HepG2” value is reported as 42% and the “Mean percent remaining mRNA transcript at siRNA concentration/in cell type 100 nM/HepG2” value is reported as 35%.

In the case of “AD-9571: PCSK9 siRNA (sense rGrCrCrArGrGrUrGrCrUrGrCrCrUrGrCrUrArCdT*dT; antisense rGrUrArGrCrArGrGrCrArGrCrArCrCrUrGrGrCdT*dT)”, the “Mean percent remaining mRNA transcript at siRNA concentration/in cell type 3 nM/HepG2” value is reported as 32% and the “Mean percent remaining mRNA transcript at siRNA concentration/in cell type 30 nM/HepG2” value is reported as 27%.

For “AD-9572: PCSK9 siRNA (sense rCrCrArGrGrUrGrCrUrGrCrCrUrGrCrUrArCrCdT*dT; antisense rGrGrUrArGrCrArGrGrCrArGrCrArCrCrUrGrGdT*dT)”, the “Mean percent remaining mRNA transcript at siRNA concentration/in cell type 30 nM/HepG2” value was 53% and the “Mean percent remaining mRNA transcript at siRNA concentration/in cell type 100 nM/HepG2” value was 47%.

For “AD-9573: PCSK9 siRNA (sense rArUrGrGrUrCrArCrCrGrArCrUrUrCrGrArGrAdT*dT; antisense rUrCrUrCrGrArArGrUrCrGrGrUrGrArCrCrArUdT*dT)”, the IC50 was 1.6 nM, the “Mean percent remaining mRNA transcript at siRNA concentration/in cell type 3 nM/HepG2” value was 42% and the “Mean percent remaining mRNA transcript at siRNA concentration/in cell type 30 nM/HepG2” value was 36%.

“AD-9574: PCSK9 siRNA (sense rCrUrGrCrCrArArGrGrGrArArGrGrGrCrArCrGdT*dT; antisense rCrGrUrGrCrCrCrUrUrCrCrCrUrUrGrGrCrArGdT*dT)” was tested, and the “Mean percent remaining mRNA transcript at siRNA concentration/in cell type 30 nM/HepG2” value was 74%.

“AD-9575: PCSK9 siRNA (sense rCrCrGrCrUrGrCrCrGrGrCrArArCrUrUrCrCrGdT*dT; antisense rCrGrGrArArGrUrUrGrCrCrGrGrCrArGrCrGrGdT*dT)” was tested, and the “Mean percent remaining mRNA transcript at siRNA concentration/in cell type 30 nM/HepG2” value was 120%.

For “AD-9576: PCSK9 siRNA (sense rGrCrArGrArGrArCrUrGrArUrCrCrArCrUrUrCdT*dT; antisense rGrArArGrUrGrGrArUrCrArGrUrCrUrCrUrGrCdT*dT)”, the “Mean percent remaining mRNA transcript at siRNA concentration/in cell type 30 nM/HepG2” value was 47%.

“AD-9577: PCSK9 siRNA (sense rCrArCrCrArArGrGrArGrGrCrArGrGrArUrUrCdT*dT; antisense rGrArArUrCrCrUrGrCrCrUrCrCrUrUrGrGrUrGdT*dT)” was tested, and the “Mean percent remaining mRNA transcript at siRNA concentration/in cell type 3 nM/HepG2” value was 31% and the “Mean percent remaining mRNA transcript at siRNA concentration/in cell type 30 nM/HepG2” value was 33%.

“AD-9578: PCSK9 siRNA (sense rCrArUrUrUrArUrCrUrUrUrUrGrGrGrUrCrUrGdT*dT; antisense rCrArGrArCrCrCrArArArArGrArUrArArArUrGdT*dT)” was tested, and the “Mean percent remaining mRNA transcript at siRNA concentration/in cell type 30 nM/HepG2” value was 61% and the “Mean percent remaining mRNA transcript at siRNA concentration/in cell type 100 nM/HepG2” value was 49%.

In the case of “AD-9579: PCSK9 siRNA (sense rArUrCrGrArGrGrArGrGrArCrUrCrCrUrCrUrGdT*dT; antisense rCrArGrArGrGrArGrUrCrCrUrCrCrUrCrGrArUdT*dT)”, the “Mean percent remaining mRNA transcript at siRNA concentration/in cell type 30 nM/HepG2” value is reported as 113%.

In the case of “AD-9580: PCSK9 siRNA (sense rCrCrUrGrCrGrCrGrUrGrCrUrCrArArCrUrGrCdT*dT; antisense rGrCrArGrUrUrGrArGrCrArCrGrCrGrCrArGrGdT*dT)”, the “Mean percent remaining mRNA transcript at siRNA concentration/in cell type 30 nM/HepG2” value is reported as 112%.

“AD-9581: PCSK9 siRNA (sense rUrGrCrGrCrGrUrGrCrUrCrArArCrUrGrCrCrAdT*dT; antisense rUrGrGrCrArGrUrUrGrArGrCrArCrGrCrGrCrAdT*dT)” was tested, and the “Mean percent remaining mRNA transcript at siRNA concentration/in cell type 30 nM/HepG2” value was 35%.

With “AD-9582: PCSK9 siRNA (sense rCrCrArGrCrArUrCrCrArCrGrCrUrUrCrCrUrGdT*dT; antisense rCrArGrGrArArGrCrGrUrGrGrArUrGrCrUrGrGdT*dT)” the “Mean percent remaining mRNA transcript at siRNA concentration/in cell type 30 nM/HepG2” value was 37%.

In the case of “AD-9583: PCSK9 siRNA (sense rCrCrCrArUrGrUrCrGrArCrUrArCrArUrCrGrAdT*dT; antisense rUrCrGrArUrGrUrArGrUrCrGrArCrArUrGrGrGdT*dT)”, the “Mean percent remaining mRNA transcript at siRNA concentration/in cell type 30 nM/HepG2” value is reported as 42%.

For “AD-9584: PCSK9 siRNA (sense rCrCrCrUrGrGrCrGrGrGrUrGrGrGrUrArCrArGdT*dT; antisense rCrUrGrUrArCrCrCrArCrCrCrGrCrCrArGrGrGdT*dT)”, the “Mean percent remaining mRNA transcript at siRNA concentration/in cell type 30 nM/HepG2” value was 68% and the “Mean percent remaining mRNA transcript at siRNA concentration/in cell type 100 nM/HepG2” value was 52%.
